The values that follow come from ChEMBL document CHEMBL1151140, “Enantiomeric Relationships and Anthelmintic Activity of Dysinin Derivatives from Dysidea Marine Sponges” (J Nat Prod, 1990).

Test [1] relates to Nippostrongylus brasiliensis. The experiment in a line: Anthelmintic activity against Nippostrongylus brasiliensis at 50 ug/ml. It is filed as functional, organism-based.
Test [2] is described as follows: Anthelmintic activity against Hypselodoris nana at 1000 ppm. Format: functional.
In another test the test system is Nippostrongylus. Put plainly: Anthelmintic activity against Nippostrongylus dubias at 1000 ppm. It is filed as functional, organism-based.

The structures appear in SMILES notation. Activity calls are given as the source filed them. The calls are words filed in the database; no cut-off is given here.

On to `CO[C@]12C[C@@H]3C=C(CSC(C)=O)CC[C@H]3C(C)(C)C1=CC(=O)O2`, for which the result in test [1] was inactive. On to `CC1=C[C@H]2Cc3occc3C(C)(C)[C@@H]2CC1`, for which, in test [1], the outcome was Active. The outcome (in test [2]; with Nippostrongylus) was inactive. Consider `CC1(C)c2ccoc2C[C@@H]2C=C(CSSCC3=C[C@H]4Cc5occc5C(C)(C)[C@@H]4CC3)CC[C@H]21`, for which the result in test [1] was Active.

`CC(=O)SCC1=C[C@H]2Cc3occc3C(C)(C)[C@@H]2CC1`: the result in test [1] was Active.
